Data from patent US12171766B2, “Methods of treating patients suffering from brain injury and methods of increasing the value of the extended Glasgow Outcome Scale of patients suffering from brain injury” (VERINOS OPERATIONS GMBH, priority 2021, dated 2024).

Tested on: adult intensive care patients with acute moderate and severe TBI
Assay: NOSTRA phase III trial: Extended Glasgow Outcome Scale (eGOS) at 3 and 6 months, Ronopterin 17 mg/kg infused over 48 hours vs placebo, incl. post hoc subgroup analyses
Format: in vivo, human
Conditions: for Good Recovery (eGOS ≥ 7) at 6 months, Odds ratio, 95% CI / Improvement in eGOS from 3 to 6 months, at least + 1 eGOS level, Odds ratio, 95% CI / Good Recovery (eGOS ≥ 7) at 3 months, Odds ratio, 95% CI: vs placebo
Experimental: A phase III trial of Ronopterin infusion to adult TBI patients (18-60 years) with acute moderate and severe TBI was performed. Based on the results of the earlier phase II study, the NOSTRA (NO Synthase in TRAumatic Brain Injury) phase III trial was designed to detect clinically relevant differences in clinical outcome (Extended Glasgow Outcome Score at 6 months after injury) as primary endpoint.
NOSTRA III was a multicentre, prospective, two parallel groups, blinded, placebo-controlled, randomised phase III trial of Ronopterin infusion for 48 hours in adult intensive care patients with acute moderate and severe TBI. […] The detailed study protocol is described by Tegtmeier et al. Efficacy of Ronopterin (VAS203) in Patients with Moderate and Severe Traumatic Brain Injury (NOSTRA phase III trial): study protocol of a confirmatory, placebo-controlled, randomised, double blind, multi-centre study. Trials. 2020. A total of 224 evaluable patients with moderate and severe TBI were enrolled in 32 centres in Austria, France, Germany, Spain, and United Kingdom. The trial started on 24 Aug. 2016 with last-patient last-visit on 17 Jun. 2020.
Patients between 18 and 60 years of age with Glasgow Coma Score≥3 requiring intracranial pressure (ICP) monitoring were enrolled. Other inclusion criteria were TBI within the last 18 hours but at least 6 hours after the injury, which were expected to survive more than 24 hours after admission.
Ronopterin and placebo (0.9% saline) were infused continuously via central venous catheter at a constant rate. A total dose of 17 mg/kg body weight of Ronopterin was infused for 48 hours (daily dose 8.5 mg/kg body weight).
The primary outcome was the difference between eGOS in Ronopterin and placebo treated patients at 6 months after trauma. The eGOS was determined by a face to face meeting by trained assessors.
The null-hypothesis of no shift across the 8 ordered categories of eGOS for the two treatment groups was tested after six months based on a proportional odds model stratified by age (18-39 years and 40-60 years). The treatment effect was estimated using ordinal Logistic regression model as the (proportional) odds ratio of Ronopterin versus Placebo. Treatment and age (18-39 years and 40-60 years) were included in the model. The proportional odds assumption was tested using a Chi-Square Score Test.
As secondary efficacy endpoint the eGOS at 3 months was analysed using the same statistics.
The main objective of the post hoc analyses was to estimate the effect size of VAS203 compared with placebo for the primary endpoint eGOS-I in the subgroups time to infusion ≤12 hours and >12 hours. Supportive analyses were conducted by age group (<40 years, ≥40 years) because age group was used as a stratification factor in the study. Comparability between treatment groups regarding demographics as well as severity and location of disease was investigated using similar methods as in the main CSR.
The proportions of patients per eGOS-I level at 3 months and at 6 months were calculated. For the change in eGOS-I over time, the proportion of patients with changes from 3 to 6 months were calculated by eGOS-I level, and in addition categorised as decreased (i.e. any decrease in eGOS-I level from 3 to 6 months), unchanged (i.e. no change in eGOS-I level from 3 to 6 months), and increased (i.e. any increase in eGOS-I level from 3 to 6 months).
Ordinal logistic regression was used for the analysis of eGOS-I at 3 months and at 6 months, including treatment group and age group (<40 years, ≥40 years) as factors in the model. Estimated odds ratios for the comparison of the VAS203 and placebo groups of >1 mean that eGOS-I was higher in the VAS203 group than in the placebo group across the 8 levels, whereas odds ratios of <1 mean that eGOS-I was lower in the VAS203 group than in the placebo group. Odds ratios together with their 95% CIs were used to estimate and assess the size of the treatment effect of VAS203 compared to placebo. […]

CC(O)C(O)C1CNc2nc(N)nc(N)c2N1 [Ronopterin, 4-Amino-(6R,S)-5,6,7,8-tetrahydro-L-biopterin]
Good Recovery (eGOS ≥ 7) at 6 months, Odds ratio, 95% CI (All females 40-60 years (so in the source), >12 hours): 5.5 (0.6-53); | Good Recovery (eGOS ≥ 7) at 6 months, Odds ratio, 95% CI (All females, all times to infusion): 2.8 (0.6-12.6); n = 44 | Improvement in eGOS from 3 to 6 months, at least + 1 eGOS level, Odds ratio, 95% CI (All males 18-60 years and young females 18-39 years, ≤12 hours): 3.4 (1.2-10.2); | Improvement in eGOS from 3 to 6 months, at least + 1 eGOS level, Odds ratio, 95% CI (All males 18-60 years, ≤12 hours): 3.7 (1.1-12); | Good Recovery (eGOS ≥ 7) at 6 months, Odds ratio, 95% CI (All males plus females 18-39 years, ≤12 hours): 2.4 (0.8-7.6); | Good Recovery (eGOS ≥ 7) at 3 months, Odds ratio, 95% CI (Female, 18-39 years, >12 hours): 6.5 (0.27-161); | Good Recovery (eGOS ≥ 7) at 6 months, Odds ratio, 95% CI (Female, 18-39 years, >12 hours): 2.3 (0.2-33); | Improvement in eGOS from 3 to 6 months, at least + 1 eGOS level, Odds ratio, 95% CI (Female, 18-39 years, >12 hours): 0.3 (0.04-2.8); | Good Recovery (eGOS ≥ 7) at 3 months, Odds ratio, 95% CI (Female, 18-39 years, ≤12 hours): 1.5 (0.06-41); | Good Recovery (eGOS ≥ 7) at 6 months, Odds ratio, 95% CI (Female, 18-39 years, ≤12 hours): 6.0 (0.2-163); | Improvement in eGOS from 3 to 6 months, at least + 1 eGOS level, Odds ratio, 95% CI (Female, 18-39 years, ≤12 hours): 1.5 (0.06-41); | Good Recovery (eGOS ≥ 7) at 3 months, Odds ratio, 95% CI (Female, 40-60 years, >12 hours): 4.2 (0.2-102); | Good Recovery (eGOS ≥ 7) at 6 months, Odds ratio, 95% CI (Female, 40-60 years, >12 hours): 6.2 (0.3-147); | Improvement in eGOS from 3 to 6 months, at least + 1 eGOS level, Odds ratio, 95% CI (Female, 40-60 years, >12 hours): 1.3 (0.1-18); | Good Recovery (eGOS ≥ 7) at 3 months, Odds ratio, 95% CI (Female, 40-60 years, ≤12 hours): 1.3 (0.02-83); | Good Recovery (eGOS ≥ 7) at 6 months, Odds ratio, 95% CI (Female, 40-60 years, ≤12 hours): 0.3 (0.01-11.3); | Improvement in eGOS from 3 to 6 months, at least + 1 eGOS level, Odds ratio, 95% CI (Female, 40-60 years, ≤12 hours): 0.3 (0.01-11.3); | Good Recovery (eGOS ≥ 7) at 3 months, Odds ratio, 95% CI (Females 18-39 years, all times to infusion): 4.2 (0.4-47); n = 23 | Good Recovery (eGOS ≥ 7) at 3 months, Odds ratio, 95% CI (Females 40-60 years, all times to infusion): 5.7 (0.3-126); n = 21 | Good Recovery (eGOS ≥ 7) at 3 months, Odds ratio, 95% CI (Male, 18-39 years, >12 hours): 0.2 (0.03-0.85); | Improvement in eGOS from 3 to 6 months, at least + 1 eGOS level, Odds ratio, 95% CI (Male, 18-39 years, >12 hours): 0.7 (0.2-1.9); | Good Recovery (eGOS ≥ 7) at 6 months, Odds ratio, 95% CI (Male, 18-39 years, time to infusion >12 hours): 0.6 (0.2-1.6); | Good Recovery (eGOS ≥ 7) at 6 months, Odds ratio, 95% CI (Male, 18-39 years, time to infusion ≤12 hours): 1.4 (0.3-5.9); | Good Recovery (eGOS ≥ 7) at 3 months, Odds ratio, 95% CI (Male, 18-39 years, ≤12 hours): 0.4 (0.08-2.2); | Improvement in eGOS from 3 to 6 months, at least + 1 eGOS level, Odds ratio, 95% CI (Male, 18-39 years, ≤12 hours): 5.4 (1.1-26); | Good Recovery (eGOS ≥ 7) at 3 months, Odds ratio, 95% CI (Male, 40-60 years, >12 hours): 0.2 (0.02-1.4); | Good Recovery (eGOS ≥ 7) at 6 months, Odds ratio, 95% CI (Male, 40-60 years, >12 hours): 0.6 (0.2-2.2); | Improvement in eGOS from 3 to 6 months, at least + 1 eGOS level, Odds ratio, 95% CI (Male, 40-60 years, >12 hours): 0.98 (0.3-2.8); | Good Recovery (eGOS ≥ 7) at 3 months, Odds ratio, 95% CI (Male, 40-60 years, ≤12 hours): 0.7 (0.01-38); | Good Recovery (eGOS ≥ 7) at 6 months, Odds ratio, 95% CI (Male, 40-60 years, ≤12 hours): 9.0 (0.4-194); | Improvement in eGOS from 3 to 6 months, at least + 1 eGOS level, Odds ratio, 95% CI (Male, 40-60 years, ≤12 hours): 2.3 (0.4-14.6); | increase in eGOS levels from 3 to 6 months (age 18-39 years, >12 hours (FIG. 7E)): up to 3 levels | number of patients with increase in eGOS by at least 2 levels from 3 to 6 months (age 18-39 years, >12 hours (FIG. 7G)): 10 | less patients with decrease in eGOS over time vs placebo: significance (age 18-39 years, all times to infusion): not significant | increase in eGOS levels from 3 to 6 months (age 18-39 years, all times to infusion (FIG. 6A)): up to 3 levels | number of patients with increase in eGOS by at least 2 levels from 3 to 6 months (age 18-39 years, all times to infusion (FIG. 6C)): 14 | more patients with higher increase in eGOS over time vs placebo: significance (age 18-39 years, all times to infusion (FIG. 6D)): not significant | increase in eGOS levels from 3 to 6 months (age 18-39 years, ≤12 hours (FIG. 7A)): up to 3 levels | increase in proportion of patients with an eGOS increase by at least 1 level compared to Placebo: significance (age 18-39 years, ≤12 hours (FIG. 7B, 7D)): significant | number of patients with increase in eGOS by at least 2 levels from 3 to 6 months (age 18-39 years, ≤12 hours (FIG. 7C)): 4 | increase in eGOS levels from 3 to 6 months (age 40-60 years, >12 hours (FIG. 9E)): up to 4 levels | number of patients with increase in eGOS by at least 2 levels from 3 to 6 months (age 40-60 years, >12 hours (FIG. 9G)): 5 | less patients with a decrease in eGOS over time vs placebo: significance (age 40-60 years, all times to infusion): not (statistically) significant | increase in eGOS levels from 3 to 6 months (age 40-60 years, all times to infusion (FIG. 8A)): up to 4 levels
